Reference: patent US20190201721A1, “ORAL CARE PRODUCTS AND METHODS COMPRISING HYDROXYAPATITE BINDING PROTEINS” (BASF SE, priority 2015, published 2019)

Tested on: not listed separately
Test: Binding to and release from calcium phosphate discs (HA-discs) after saliva incubation
Details: read out by TRPM8 activation of the supernatant
Protocol: The hybrid molecules of example 4 (5 μM in Tris buffer pH 8) were incubated with calcium phosphate discs (HA-discs from Himed) at 37° C. for 1 hr. Unbound molecules were removed by washing 3-times with Tris buffer. The coated calcium phosphate discs were incubated with buffer as a control and in parallel with pooled human saliva (5 donors; 37° C., for 2 hrs). The supernatant was centrifuged and evaluated for cooling activity by specific activation of human cool receptor TRPM8.
The agonisation or antagonisation of the receptor was quantified by means of a Ca^2+-sensitive dye (e.g. FURA, Fluo-4, etc.). Agonists on their own bring about an increase in the Ca^2+-signal; antagonists in the presence of, for example, menthol bring about a reduction in the Ca^2+-signal (in each case detected by means of the Fluo-4 dye, which due to the Ca^2+ has other fluorescent properties). To begin with, in a manner known per se, in cell culture flasks a fresh culture of transformed HEK cells was prepared. […] Addition of the test samples in quantities of 50 μl/well and measurement of the change in fluorescence (e.g. in the FLIPR assay device, Molecular Devices or NovoStar, BMG) at 485 nm excitation, 520 nm emission, and evaluation of the effective strength of the various substances/concentrations and determination of the EC50 values. […]

Molecule | bound on hydroxyapatite / released after incubation with human saliva
CC1CCC(C(C)C)C(O)C1 (centres unmarked) [menthol] | nothing is bound on hydroxyapatite

Tested on: not given
Test: not given
Details: described by Yarbrough et al. 2010; used as negative control; cited from earlier work

Molecule | binding to hydroxyapatite as described in literature
LIKHILHRL | non-binding

Biological target: T1, human TRPM8 receptor (Homo sapiens, UniProt Q7Z2W7)
T1 construct: expressed in transfected cells; host or cells: HEK293-TRPM8 (transformed HEK cells, tetracycline-inducible expression)
Test: Assay on TRPM8 activation (HEK293-TRPM8 cells, Ca2+-sensitive dye Fluo-4)
Format: cell-based
Details: before and after incubation with saliva
Protocol: The HABP peptide—cooling compound-hybrid molecules of example 4 (1 μM in Tris buffer pH 8) were incubated with pooled human saliva (5 donors) 1:1 or as reference 1:1 in Tris buffer pH 8; 37° C., for 2 hrs at 37° C. Samples were frozen until evaluation in a cell based assay for activation of the human TRPM8 receptor.
The agonisation or antagonisation of the receptor was quantified by means of a Ca^2+-sensitive dye (e.g. FURA, Fluo-4, etc.). […] To begin with, in a manner known per se, in cell culture flasks a fresh culture of transformed HEK cells was prepared. […] Addition of the test samples in quantities of 50 μl/well and measurement of the change in fluorescence (e.g. in the FLIPR assay device, Molecular Devices or NovoStar, BMG) at 485 nm excitation, 520 nm emission, and evaluation of the effective strength of the various substances/concentrations and determination of the EC50 values.

T1 sequence (Q7Z2W7 whole entry): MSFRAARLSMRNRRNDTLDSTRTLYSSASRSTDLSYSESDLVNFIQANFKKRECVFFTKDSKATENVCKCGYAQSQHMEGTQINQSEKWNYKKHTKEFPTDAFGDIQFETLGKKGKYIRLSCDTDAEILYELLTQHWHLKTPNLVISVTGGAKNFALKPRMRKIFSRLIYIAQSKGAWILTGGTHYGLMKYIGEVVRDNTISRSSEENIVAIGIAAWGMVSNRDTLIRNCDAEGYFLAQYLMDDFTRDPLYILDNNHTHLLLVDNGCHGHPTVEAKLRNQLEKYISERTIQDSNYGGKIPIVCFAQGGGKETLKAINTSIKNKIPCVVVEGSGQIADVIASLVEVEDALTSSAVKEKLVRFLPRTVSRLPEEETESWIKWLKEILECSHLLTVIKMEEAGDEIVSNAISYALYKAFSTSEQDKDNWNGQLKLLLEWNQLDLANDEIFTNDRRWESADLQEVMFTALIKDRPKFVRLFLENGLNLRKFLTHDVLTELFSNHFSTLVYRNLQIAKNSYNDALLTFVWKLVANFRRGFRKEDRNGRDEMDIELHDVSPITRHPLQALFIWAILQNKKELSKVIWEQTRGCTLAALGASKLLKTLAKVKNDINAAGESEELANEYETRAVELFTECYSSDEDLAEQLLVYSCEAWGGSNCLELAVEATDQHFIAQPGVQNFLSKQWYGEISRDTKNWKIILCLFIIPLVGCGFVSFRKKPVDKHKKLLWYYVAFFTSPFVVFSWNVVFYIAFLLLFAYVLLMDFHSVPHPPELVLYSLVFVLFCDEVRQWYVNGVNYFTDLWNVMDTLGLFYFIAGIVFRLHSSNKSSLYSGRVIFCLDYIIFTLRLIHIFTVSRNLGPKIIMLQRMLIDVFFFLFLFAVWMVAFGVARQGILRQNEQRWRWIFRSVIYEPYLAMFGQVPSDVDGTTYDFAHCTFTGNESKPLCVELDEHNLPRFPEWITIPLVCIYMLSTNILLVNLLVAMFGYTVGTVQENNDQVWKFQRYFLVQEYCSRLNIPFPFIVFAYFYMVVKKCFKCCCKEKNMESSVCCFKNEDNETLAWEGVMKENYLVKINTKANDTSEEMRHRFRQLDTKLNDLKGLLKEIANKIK

Molecule | bioactivity on the human cool receptor TRPM8
CC1CCC(C(C)C)C(O)C1 (centres unmarked) [menthol] | bioactive

Tested on: not listed separately
Test: Binding assay of carboxyfluorescein-labeled peptides/proteins to hydroxyapatite powder
Details: 2 μM N-terminal labeled peptide/protein, 10 mg hydroxyapatite powder, HBS-T buffer, 2 h, 37° C.
Protocol: i. Petide/Protein Labeling For binding studies 5(6)-carboxyfluorescein was conjugated to the N-terminus of the peptides/proteins by using the corresponding succinimidyl ester (Invitrogen, Darmstadt, Germany). The labeling reaction was performed according to the manufactures protocol (Invitrogen, Darmstadt, Germany). After conjugation, the labeled peptide/protein was purified either with a PD-10 desalting column for proteins larger than 5 kDa or a PD MidiTrap G-10 for smaller proteins (GE Healthcare, Buckinghamshire, UK) or for peptides by HPLC on RP18 column. ii. Peptide/Protein Binding For the binding experiments N-terminal labeled peptides/proteins were used in a final concentration of 2 μM. The binding was carried out in HBS-T buffer (150 mM NaCl, 50 mM HEPES pH 7.5, 0.1% Tween 20). The peptides/proteins were exposed to 10 mg hydroxyapatite powder (Fluke) for 2 h at 37° C. After five wash steps with HBS-T buffer the bound peptide/protein was visualized by fluorescence microscopy with the appropriate filters (excitation 475/50; emission 525/50). To quantify the binding, the fluorescence intensity of the solution before (Fi) and after (Ff) binding was measured with a Fluostar Galaxy (BMG, Ortenberg, Germany) and the amount of bound peptide/protein was estimated (cbound=[1−(Ff/Fi)]×c0). The peptide LIKHILHRL, which was described as a non-binding peptide to hydroxyapatite, was used as a negative control [Yarbrough D K, Hagerman E, Eckert R, He J, Choi H, Cao N, et al. Specific binding and mineralization of calcified surfaces by small peptides. Calcif Tissue Int 2010; 86(1):58-66.]. All binding experiments were carried out as triplicates. Evaluation: +: 30-50% bound peptide on HAP; ++: 50-100% bound peptide on HAP

Molecule | bound peptide on HAP
AFP4-His6 (protein, His6 tag) MRFIVSLLAFTAAATATALPASAAKNAKLATSAAFAKQAEGTTCNVGSIACCNSPAETNNDSLLSGLLGAGLLNGLSGNTGSACAKASLIDQLGLLALVDHTEEGPVCKNIVACCPEGTTNCVAVDNAGAGTKAE | (35%)
IPTLPSS-GGG-AFP4-His6 (protein, fusion of HABP peptide IPTLPSS via GGG spacer to antifreeze protein AFP4-His6) MKFSIAAAVVAFAASVAALPPAHDSQFAGNGVGNKGNSNVKFPVPENVTVKQASDKCGDQAQLSCCNKATYAGDTTTVDEGLLSGALSGLIGAGSGAEGLGLFDQCSKLDVAVLIGIQDLVNQKCKQNIACCQNSPSSADGNLIGVGLPCVALGSIL | (60%)

Same assay, conditions: 2 μM N-terminal labeled peptide/protein, 10 mg hydroxyapatite powder, HBS-T buffer, 2 h, 37° C., triplicates

Molecule | bound peptide on HAP (evaluation class)
EHITTSN [SEQ ID NO: 9] | + (+: 30-50% bound peptide on HAP)
GKVQAQS [SEQ ID NO: 5] | + (+: 30-50% bound peptide on HAP)
GSPATAA [SEQ ID NO: 4] | + (+: 30-50% bound peptide on HAP)
HPPLHHA [SEQ ID NO: 2] | + (+: 30-50% bound peptide on HAP)
IDDYTRA [SEQ ID NO: 1] | ++ (++: 50-100% bound peptide on HAP)
IPITNLR [SEQ ID NO: 11] | + (+: 30-50% bound peptide on HAP)
IPTLPSS [SEQ ID NO: 7] | ++ (++: 50-100% bound peptide on HAP)
MQTVEVT [SEQ ID NO: 14] | + (+: 30-50% bound peptide on HAP)
NERALTL [SEQ ID NO: 13] | + (+: 30-50% bound peptide on HAP)
RILITIP [SEQ ID NO: 10] | + (+: 30-50% bound peptide on HAP)
SPSTHWK [SEQ ID NO: 3] | + (+: 30-50% bound peptide on HAP)
SWGTQTD [SEQ ID NO: 15] | + (+: 30-50% bound peptide on HAP)
TLPASSV [SEQ ID NO: 16] | ++ (++: 50-100% bound peptide on HAP)
TTSTRHI [SEQ ID NO: 12] | + (+: 30-50% bound peptide on HAP)
YPVTPSI [SEQ ID NO: 6] | + (+: 30-50% bound peptide on HAP)
YQGASEN [SEQ ID NO: 8] | ++ (++: 50-100% bound peptide on HAP)
AFP4-His6 (protein, His6 tag) MRFIVSLLAFTAAATATALPASAAKNAKLATSAAFAKQAEGTTCNVGSIACCNSPAETNNDSLLSGLLGAGLLNGLSGNTGSACAKASLIDQLGLLALVDHTEEGPVCKNIVACCPEGTTNCVAVDNAGAGTKAE | + (+: 30-50% bound peptide on HAP)
IPTLPSS-GGG-AFP4-His6 (protein, fusion of HABP peptide IPTLPSS via GGG spacer to antifreeze protein AFP4-His6) MKFSIAAAVVAFAASVAALPPAHDSQFAGNGVGNKGNSNVKFPVPENVTVKQASDKCGDQAQLSCCNKATYAGDTTTVDEGLLSGALSGLIGAGSGAEGLGLFDQCSKLDVAVLIGIQDLVNQKCKQNIACCQNSPSSADGNLIGVGLPCVALGSIL | ++ (++: 50-100% bound peptide on HAP)
